Measurements reported in the kinase profiling compilation of Christmann-Franck et al. (2016).

Assays:
PDGFRA (human) = PDGFRA (human) (UniProt P16234); test: KINOMEscan competition binding; settings: compound 10.0 µM
[1] = test system: ABL1 (human), P00519 [F317L]; test: KINOMEscan competition binding; settings: compound 10.0 µM
[2] = biological target: TYK2 JH2 pseudokinase (human) (UniProt P29597); test: KINOMEscan competition binding; settings: compound 10.0 µM
[3] = test system: FLT3 (human), P36888 [D835H]; test: KINOMEscan competition binding; settings: compound 10.0 µM
TNK1 (human) = TNK1 (human) (UniProt Q13470); test: KINOMEscan competition binding; settings: compound 10.0 µM
RIOK3 (human) = RIOK3 (human) (UniProt O14730); test: KINOMEscan competition binding; settings: compound 10.0 µM
RIOK3 (human), sequence (O14730 whole entry, looked up): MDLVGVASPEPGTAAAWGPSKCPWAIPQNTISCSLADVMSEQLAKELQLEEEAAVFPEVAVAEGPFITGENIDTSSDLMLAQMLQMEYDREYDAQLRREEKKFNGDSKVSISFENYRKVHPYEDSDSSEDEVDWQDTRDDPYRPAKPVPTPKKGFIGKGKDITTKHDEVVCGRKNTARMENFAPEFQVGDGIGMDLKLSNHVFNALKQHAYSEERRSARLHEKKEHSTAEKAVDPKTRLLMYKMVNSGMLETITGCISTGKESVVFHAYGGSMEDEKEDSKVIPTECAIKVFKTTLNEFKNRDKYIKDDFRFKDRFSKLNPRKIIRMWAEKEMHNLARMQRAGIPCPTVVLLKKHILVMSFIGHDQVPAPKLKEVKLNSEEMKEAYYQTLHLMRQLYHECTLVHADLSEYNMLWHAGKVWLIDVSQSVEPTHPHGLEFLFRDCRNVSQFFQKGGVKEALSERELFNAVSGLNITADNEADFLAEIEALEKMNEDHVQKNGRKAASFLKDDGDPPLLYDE

[4] = test system: FLT3 (human), P36888 [K663Q]; test: KINOMEscan competition binding; settings: compound 10.0 µM
PRKD3 (human) = PRKD3 (human) (UniProt O94806); test: KINOMEscan competition binding; settings: compound 10.0 µM
CHEK1 (human) = CHEK1 (human) (UniProt O14757); test: KINOMEscan competition binding; settings: compound 10.0 µM
[5] = test system: KIT (human), P10721 [V559D/T670I]; test: KINOMEscan competition binding; settings: compound 10.0 µM
PLK3 (human) = PLK3 (human) (UniProt Q9H4B4); test: KINOMEscan competition binding; settings: compound 10.0 µM
FGFR4 (human) = FGFR4 (human) (UniProt P22455); test: KINOMEscan competition binding; settings: compound 10.0 µM
FRK (human) = FRK (human) (UniProt P42685); test: KINOMEscan competition binding; settings: compound 10.0 µM
[6] = test system: KIT (human), P10721 [D816V]; test: KINOMEscan competition binding; settings: compound 10.0 µM
[7] = test system: ABL1 (human), P00519 [F317I]; test: KINOMEscan competition binding; settings: compound 10.0 µM
CSF1R (human) = CSF1R (human) (UniProt P07333); test: KINOMEscan competition binding; settings: compound 10.0 µM
MYLK4 (human) = MYLK4 (human) (UniProt Q86YV6); test: KINOMEscan competition binding; settings: compound 10.0 µM
[8] = test system: KIT (human), P10721 [V559D/V654A]; test: KINOMEscan competition binding; settings: compound 10.0 µM
RIOK1 (human) = RIOK1 (human) (UniProt Q9BRS2); test: KINOMEscan competition binding; settings: compound 10.0 µM
FLT3 (human) = FLT3 (human) (UniProt P36888); test: KINOMEscan competition binding; settings: compound 10.0 µM
PIP5K1A (human) = PIP5K1A (human) (UniProt Q99755); test: KINOMEscan competition binding; settings: compound 10.0 µM
KIT (human) = KIT (human) (UniProt P10721); test: KINOMEscan competition binding; settings: compound 10.0 µM
GAK (human) = GAK (human) (UniProt O14976); test: KINOMEscan competition binding; settings: compound 10.0 µM
GAK (human), sequence (O14976 whole entry, looked up): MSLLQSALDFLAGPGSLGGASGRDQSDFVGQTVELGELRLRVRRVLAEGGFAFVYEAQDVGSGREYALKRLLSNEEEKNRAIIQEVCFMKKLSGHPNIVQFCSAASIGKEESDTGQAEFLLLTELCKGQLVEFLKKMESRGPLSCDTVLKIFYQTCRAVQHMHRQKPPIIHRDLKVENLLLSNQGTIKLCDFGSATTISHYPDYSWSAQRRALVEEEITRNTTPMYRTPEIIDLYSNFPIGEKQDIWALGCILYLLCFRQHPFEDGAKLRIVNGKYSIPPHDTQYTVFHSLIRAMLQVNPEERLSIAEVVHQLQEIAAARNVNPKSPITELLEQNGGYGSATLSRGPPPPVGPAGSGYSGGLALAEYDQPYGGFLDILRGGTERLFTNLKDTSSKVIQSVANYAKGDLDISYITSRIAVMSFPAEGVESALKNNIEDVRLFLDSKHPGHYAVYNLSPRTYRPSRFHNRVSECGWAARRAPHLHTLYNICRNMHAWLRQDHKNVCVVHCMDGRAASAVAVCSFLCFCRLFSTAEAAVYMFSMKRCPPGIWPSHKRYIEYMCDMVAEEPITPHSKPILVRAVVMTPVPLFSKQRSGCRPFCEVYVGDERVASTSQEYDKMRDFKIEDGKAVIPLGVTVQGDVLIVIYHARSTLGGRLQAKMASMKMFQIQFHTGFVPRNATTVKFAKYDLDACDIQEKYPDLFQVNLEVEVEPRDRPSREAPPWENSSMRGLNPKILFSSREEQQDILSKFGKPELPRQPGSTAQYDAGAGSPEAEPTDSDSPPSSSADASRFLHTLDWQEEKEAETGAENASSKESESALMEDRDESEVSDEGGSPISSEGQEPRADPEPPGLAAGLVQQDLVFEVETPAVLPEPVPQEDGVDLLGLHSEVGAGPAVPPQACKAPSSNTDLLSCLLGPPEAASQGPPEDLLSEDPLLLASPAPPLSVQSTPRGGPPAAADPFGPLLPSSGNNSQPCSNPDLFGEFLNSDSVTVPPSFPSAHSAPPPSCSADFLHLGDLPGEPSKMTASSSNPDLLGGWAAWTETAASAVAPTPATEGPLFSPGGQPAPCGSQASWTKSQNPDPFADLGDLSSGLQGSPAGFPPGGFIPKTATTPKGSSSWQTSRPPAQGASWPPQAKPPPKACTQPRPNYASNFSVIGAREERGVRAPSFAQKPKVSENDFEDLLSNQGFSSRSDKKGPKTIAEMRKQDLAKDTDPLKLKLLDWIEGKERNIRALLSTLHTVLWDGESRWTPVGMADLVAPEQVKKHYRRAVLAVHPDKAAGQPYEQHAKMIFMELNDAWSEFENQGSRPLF

FLT4 (human) = FLT4 (human) (UniProt P35916); test: KINOMEscan competition binding; settings: compound 10.0 µM
FLT4 (human), sequence (P35916 whole entry, looked up): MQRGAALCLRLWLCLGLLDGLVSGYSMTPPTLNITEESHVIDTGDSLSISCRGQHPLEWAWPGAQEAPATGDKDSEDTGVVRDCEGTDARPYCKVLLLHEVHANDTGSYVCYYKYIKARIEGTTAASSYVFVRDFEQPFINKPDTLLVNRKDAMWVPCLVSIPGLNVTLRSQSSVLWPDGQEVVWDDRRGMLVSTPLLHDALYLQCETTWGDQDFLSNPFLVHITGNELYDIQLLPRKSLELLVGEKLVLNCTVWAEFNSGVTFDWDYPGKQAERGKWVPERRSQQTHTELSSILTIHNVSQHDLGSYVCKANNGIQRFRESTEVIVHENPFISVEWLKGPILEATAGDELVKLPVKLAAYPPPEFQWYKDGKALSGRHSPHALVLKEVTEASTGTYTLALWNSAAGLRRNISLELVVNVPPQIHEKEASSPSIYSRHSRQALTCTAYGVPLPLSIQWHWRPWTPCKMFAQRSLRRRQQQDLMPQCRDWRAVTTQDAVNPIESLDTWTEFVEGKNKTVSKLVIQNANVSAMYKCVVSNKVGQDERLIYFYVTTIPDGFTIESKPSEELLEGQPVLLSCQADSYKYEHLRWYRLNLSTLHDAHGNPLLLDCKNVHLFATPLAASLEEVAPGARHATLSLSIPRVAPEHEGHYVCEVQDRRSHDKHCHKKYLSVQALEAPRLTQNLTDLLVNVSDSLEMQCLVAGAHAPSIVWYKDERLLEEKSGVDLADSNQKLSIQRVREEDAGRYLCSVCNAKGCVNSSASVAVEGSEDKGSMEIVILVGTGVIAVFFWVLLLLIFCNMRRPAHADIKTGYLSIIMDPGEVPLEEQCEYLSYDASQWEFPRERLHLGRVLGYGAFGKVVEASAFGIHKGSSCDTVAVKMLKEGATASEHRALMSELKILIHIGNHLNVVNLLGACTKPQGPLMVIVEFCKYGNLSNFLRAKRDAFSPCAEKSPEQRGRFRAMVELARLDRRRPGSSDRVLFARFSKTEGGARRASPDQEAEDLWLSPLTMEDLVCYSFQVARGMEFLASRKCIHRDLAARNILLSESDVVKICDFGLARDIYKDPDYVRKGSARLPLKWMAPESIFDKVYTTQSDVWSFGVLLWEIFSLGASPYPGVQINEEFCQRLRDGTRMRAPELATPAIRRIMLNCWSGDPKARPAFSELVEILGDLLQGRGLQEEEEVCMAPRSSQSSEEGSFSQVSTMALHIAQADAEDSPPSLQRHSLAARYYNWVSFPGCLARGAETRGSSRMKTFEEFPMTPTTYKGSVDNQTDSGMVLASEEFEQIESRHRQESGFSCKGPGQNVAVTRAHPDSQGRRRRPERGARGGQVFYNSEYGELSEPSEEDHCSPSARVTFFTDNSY

STK33 (human) = STK33 (human) (UniProt Q9BYT3); test: KINOMEscan competition binding; settings: compound 10.0 µM
[9] = test system: KIT (human), P10721 [V559D]; test: KINOMEscan competition binding; settings: compound 10.0 µM
BLK (human) = BLK (human) (UniProt P51451); test: KINOMEscan competition binding; settings: compound 10.0 µM
SLK (human) = SLK (human) (UniProt Q9H2G2); test: KINOMEscan competition binding; settings: compound 10.0 µM
TNK2 (human) = TNK2 (human) (UniProt Q07912); test: KINOMEscan competition binding; settings: compound 10.0 µM
NEK2 (human) = NEK2 (human) (UniProt P51955); test: KINOMEscan competition binding; settings: compound 10.0 µM
SIK2 (human) = SIK2 (human) (UniProt Q9H0K1); test: KINOMEscan competition binding; settings: compound 10.0 µM
[10] = test system: EIF2AK4 KD2 (human), Q9P2K8 [S808G]; test: KINOMEscan competition binding; settings: compound 10.0 µM
BMP2K (human) = BMP2K (human) (UniProt Q9NSY1); test: KINOMEscan competition binding; settings: compound 10.0 µM
RPS6KA1 KD2 (human) = RPS6KA1 KD2 (human) (UniProt Q15418); test: KINOMEscan competition binding; settings: compound 10.0 µM
RPS6KA6 KD2 (human) = RPS6KA6 KD2 (human) (UniProt Q9UK32); test: KINOMEscan competition binding; settings: compound 10.0 µM
PDGFRB (human) = PDGFRB (human) (UniProt P09619); test: KINOMEscan competition binding; settings: compound 10.0 µM
PRKD1 (human) = PRKD1 (human) (UniProt Q15139); test: KINOMEscan competition binding; settings: compound 10.0 µM
PLK4 (human) = PLK4 (human) (UniProt O00444); test: KINOMEscan competition binding; settings: compound 10.0 µM
HIPK1 (human) = HIPK1 (human) (UniProt Q86Z02); test: KINOMEscan competition binding; settings: compound 10.0 µM
STK3 (human) = STK3 (human) (UniProt Q13188); test: KINOMEscan competition binding; settings: compound 10.0 µM
SRPK1 (human) = SRPK1 (human) (UniProt Q96SB4); test: KINOMEscan competition binding; settings: compound 10.0 µM
MERTK (human) = MERTK (human) (UniProt Q12866); test: KINOMEscan competition binding; settings: compound 10.0 µM
AXL (human) = AXL (human) (UniProt P30530); test: KINOMEscan competition binding; settings: compound 10.0 µM
CDK16 (human) = CDK16 (human) (UniProt Q00536); test: KINOMEscan competition binding; settings: compound 10.0 µM
AURKC (human) = AURKC (human) (UniProt Q9UQB9); test: KINOMEscan competition binding; settings: compound 10.0 µM
MAPK9 (human) = MAPK9 (human) (UniProt P45984); test: KINOMEscan competition binding; settings: compound 10.0 µM
PIM3 (human) = PIM3 (human) (UniProt Q86V86); test: KINOMEscan competition binding; settings: compound 10.0 µM
NEK7 (human) = NEK7 (human) (UniProt Q8TDX7); test: KINOMEscan competition binding; settings: compound 10.0 µM
PIM1 (human) [11] = biological target: PIM1 (human) (UniProt P11309); test: KINOMEscan competition binding; settings: compound 10.0 µM
PIM1 (human), sequence (P11309 whole entry, looked up): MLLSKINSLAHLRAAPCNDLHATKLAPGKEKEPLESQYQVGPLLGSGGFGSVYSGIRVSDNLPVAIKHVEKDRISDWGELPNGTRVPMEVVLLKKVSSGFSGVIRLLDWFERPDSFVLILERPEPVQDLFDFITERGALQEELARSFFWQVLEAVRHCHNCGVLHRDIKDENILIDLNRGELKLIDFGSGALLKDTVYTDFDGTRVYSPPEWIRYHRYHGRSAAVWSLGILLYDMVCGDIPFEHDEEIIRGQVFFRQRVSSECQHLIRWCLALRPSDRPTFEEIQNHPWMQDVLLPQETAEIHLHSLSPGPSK

SRPK3 (human) = SRPK3 (human) (UniProt Q9UPE1); test: KINOMEscan competition binding; settings: compound 10.0 µM
ALK (human) = ALK (human) (UniProt Q9UM73); test: KINOMEscan competition binding; settings: compound 10.0 µM
CSNK2A1 (human) = CSNK2A1 (human) (UniProt P68400); test: KINOMEscan competition binding; settings: compound 10.0 µM
PIM2 (human) [12] = biological target: PIM2 (human) (UniProt Q9P1W9); test: KINOMEscan competition binding; settings: compound 10.0 µM
PIM2 (human), sequence (Q9P1W9 whole entry, looked up): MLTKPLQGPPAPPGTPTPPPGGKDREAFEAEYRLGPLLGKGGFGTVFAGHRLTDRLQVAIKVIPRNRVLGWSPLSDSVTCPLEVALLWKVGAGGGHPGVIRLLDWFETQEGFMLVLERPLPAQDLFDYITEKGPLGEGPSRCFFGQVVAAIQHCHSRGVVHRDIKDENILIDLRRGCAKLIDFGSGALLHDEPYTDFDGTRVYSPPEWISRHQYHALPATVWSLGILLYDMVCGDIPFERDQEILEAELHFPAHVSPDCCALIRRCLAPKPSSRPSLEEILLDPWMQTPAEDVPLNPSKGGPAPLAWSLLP

MAPK10 (human) = MAPK10 (human) (UniProt P53779); test: KINOMEscan competition binding; settings: compound 10.0 µM
CSNK2A2 (human) = CSNK2A2 (human) (UniProt P19784); test: KINOMEscan competition binding; settings: compound 10.0 µM
DAPK3 (human) = DAPK3 (human) (UniProt O43293); test: KINOMEscan competition binding; settings: compound 10.0 µM
STK17B (human) = STK17B (human) (UniProt O94768); test: KINOMEscan competition binding; settings: compound 10.0 µM
DAPK2 (human) = DAPK2 (human) (UniProt Q9UIK4); test: KINOMEscan competition binding; settings: compound 10.0 µM
STK17A (human) = STK17A (human) (UniProt Q9UEE5); test: KINOMEscan competition binding; settings: compound 10.0 µM
TGFBR2 (human) = TGFBR2 (human) (UniProt P37173); test: KINOMEscan competition binding; settings: compound 10.0 µM
NEK6 (human) = NEK6 (human) (UniProt Q9HC98); test: KINOMEscan competition binding; settings: compound 10.0 µM
MAPK14 (human) = MAPK14 (human) (UniProt Q16539); test: KINOMEscan competition binding; settings: compound 10.0 µM
MAPK8 (human) = MAPK8 (human) (UniProt P45983); test: KINOMEscan competition binding; settings: compound 10.0 µM
PIM1 (human) [13] = biological target: PIM1 (human) (UniProt P11309); test: SelectScreen, TR FRET
PIM2 (human) [14] = biological target: PIM2 (human) (UniProt Q9P1W9); test: SelectScreen, TR FRET

TYK2 JH2 pseudokinase (human), sequence (P29597 whole entry, looked up): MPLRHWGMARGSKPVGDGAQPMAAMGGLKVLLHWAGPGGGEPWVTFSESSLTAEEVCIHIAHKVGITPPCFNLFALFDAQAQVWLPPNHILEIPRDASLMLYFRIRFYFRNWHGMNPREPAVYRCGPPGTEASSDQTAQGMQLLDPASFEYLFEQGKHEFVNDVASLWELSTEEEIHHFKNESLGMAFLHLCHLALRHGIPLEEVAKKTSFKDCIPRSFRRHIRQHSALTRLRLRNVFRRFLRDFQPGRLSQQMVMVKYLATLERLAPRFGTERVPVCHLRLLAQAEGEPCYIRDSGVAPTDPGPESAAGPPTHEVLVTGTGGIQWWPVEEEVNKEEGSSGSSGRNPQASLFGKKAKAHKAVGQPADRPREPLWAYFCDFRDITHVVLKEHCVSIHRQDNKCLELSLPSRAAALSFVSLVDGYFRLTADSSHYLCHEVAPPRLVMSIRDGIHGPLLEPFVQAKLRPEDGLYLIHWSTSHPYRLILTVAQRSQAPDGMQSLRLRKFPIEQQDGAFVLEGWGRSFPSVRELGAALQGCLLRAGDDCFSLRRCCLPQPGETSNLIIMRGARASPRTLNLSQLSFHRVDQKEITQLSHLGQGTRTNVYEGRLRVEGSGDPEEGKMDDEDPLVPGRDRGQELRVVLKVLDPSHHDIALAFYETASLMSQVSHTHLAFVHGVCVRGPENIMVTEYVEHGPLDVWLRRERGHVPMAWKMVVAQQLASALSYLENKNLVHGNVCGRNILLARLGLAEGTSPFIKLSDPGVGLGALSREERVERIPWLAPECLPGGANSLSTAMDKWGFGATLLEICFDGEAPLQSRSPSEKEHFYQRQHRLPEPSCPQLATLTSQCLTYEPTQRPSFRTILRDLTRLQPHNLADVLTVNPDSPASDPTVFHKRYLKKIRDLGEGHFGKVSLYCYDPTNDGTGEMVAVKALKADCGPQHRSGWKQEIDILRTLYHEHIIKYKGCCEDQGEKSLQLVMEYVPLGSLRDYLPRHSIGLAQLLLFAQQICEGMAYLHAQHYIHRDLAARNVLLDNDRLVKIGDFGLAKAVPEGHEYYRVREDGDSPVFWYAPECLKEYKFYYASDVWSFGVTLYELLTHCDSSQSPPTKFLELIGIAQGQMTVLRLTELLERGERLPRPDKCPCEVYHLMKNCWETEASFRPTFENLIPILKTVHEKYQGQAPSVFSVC

## COc1cc(N2CCN(C)CC2)ccc1Nc1ncc2c(n1)N1CCC[C@H]1CC(=O)N2
PDGFRA (human)
  kinase still bound, per cent of control: 1.8%
[1]
  kinase still bound, per cent of control: 19%
[2]
  kinase still bound, per cent of control: 27%
[3]
  kinase still bound, per cent of control: 27%
TNK1 (human)
  kinase still bound, per cent of control: 25%
RIOK3 (human)
  kinase still bound, per cent of control: 31%
[4]
  kinase still bound, per cent of control: 19%
PRKD3 (human)
  kinase still bound, per cent of control: 30%
CHEK1 (human)
  kinase still bound, per cent of control: 6%
[5]
  kinase still bound, per cent of control: 33%
PLK3 (human)
  kinase still bound, per cent of control: 9.5%
FGFR4 (human)
  kinase still bound, per cent of control: 17%
FRK (human)
  kinase still bound, per cent of control: 8.2%
[6]
  kinase still bound, per cent of control: 12%
[7]
  kinase still bound, per cent of control: 13%
CSF1R (human)
  kinase still bound, per cent of control: 0.8%
MYLK4 (human)
  kinase still bound, per cent of control: 7.8%
[8]
  kinase still bound, per cent of control: 8.4%
RIOK1 (human)
  kinase still bound, per cent of control: 21%
FLT3 (human)
  kinase still bound, per cent of control: 11%
PIP5K1A (human)
  kinase still bound, per cent of control: 11%
KIT (human)
  kinase still bound, per cent of control: 0%
GAK (human)
  kinase still bound, per cent of control: 0.85%
FLT4 (human)
  kinase still bound, per cent of control: 33%
STK33 (human)
  kinase still bound, per cent of control: 12%
[9]
  kinase still bound, per cent of control: 0%
BLK (human)
  kinase still bound, per cent of control: 23%
SLK (human)
  kinase still bound, per cent of control: 31%
TNK2 (human)
  kinase still bound, per cent of control: 8.6%
NEK2 (human)
  kinase still bound, per cent of control: 24%
SIK2 (human)
  kinase still bound, per cent of control: 18%
[10]
  kinase still bound, per cent of control: 21%
BMP2K (human)
  kinase still bound, per cent of control: 29%
RPS6KA1 KD2 (human)
  kinase still bound, per cent of control: 14%
RPS6KA6 KD2 (human)
  kinase still bound, per cent of control: 2%
PDGFRB (human)
  kinase still bound, per cent of control: 0.05%
PRKD1 (human)
  kinase still bound, per cent of control: 29%

## O=C1NC(=S)S/C1=C\c1ccc(-c2cccc3ccccc23)o1
PLK4 (human)
  kinase still bound, per cent of control: 1.6%
HIPK1 (human)
  kinase still bound, per cent of control: 3.7%
[2]
  kinase still bound, per cent of control: 17%
[3]
  kinase still bound, per cent of control: 34%
STK3 (human)
  kinase still bound, per cent of control: 34%
RIOK3 (human)
  kinase still bound, per cent of control: 30%
SRPK1 (human)
  kinase still bound, per cent of control: 32%
MERTK (human)
  kinase still bound, per cent of control: 20%
AXL (human)
  kinase still bound, per cent of control: 29%
CDK16 (human)
  kinase still bound, per cent of control: 1.4%
AURKC (human)
  kinase still bound, per cent of control: 27%
MAPK9 (human)
  kinase still bound, per cent of control: 9.8%
PIM3 (human)
  kinase still bound, per cent of control: 2.6%
NEK7 (human)
  kinase still bound, per cent of control: 27%
PIM1 (human) [11]
  kinase still bound, per cent of control: 3%
SRPK3 (human)
  kinase still bound, per cent of control: 33%
ALK (human)
  kinase still bound, per cent of control: 19%
CSNK2A1 (human)
  kinase still bound, per cent of control: 8%
GAK (human)
  kinase still bound, per cent of control: 28%
PIM2 (human) [12]
  kinase still bound, per cent of control: 0.8%
FLT4 (human)
  kinase still bound, per cent of control: 25%
MAPK10 (human)
  kinase still bound, per cent of control: 30%
CSNK2A2 (human)
  kinase still bound, per cent of control: 12%
DAPK3 (human)
  kinase still bound, per cent of control: 22%
STK17B (human)
  kinase still bound, per cent of control: 3.6%
DAPK2 (human)
  kinase still bound, per cent of control: 17%
STK17A (human)
  kinase still bound, per cent of control: 1.8%
TGFBR2 (human)
  kinase still bound, per cent of control: 14%
NEK6 (human)
  kinase still bound, per cent of control: 26%
MAPK14 (human)
  kinase still bound, per cent of control: 33%
MAPK8 (human)
  kinase still bound, per cent of control: 30%
PIM1 (human) [13]
  IC50: 1620 nM
PIM2 (human) [14]
  IC50: 1100 nM
